Paper PMC4141193 (FEBS Open Bio, 2014)

Experiments:
[1] = molecular target: X-linked inhibitor of apoptosis protein (XIAP) (Homo sapiens, UniProt P98170); experiment: competitive fluorescence polarization with ARPF-FAM probe; type: binding
[2] = molecular target: ARPF-K(5-Fam)-NH2-peptide; experiment: fluorescence polarisation

Sequence of X-linked inhibitor of apoptosis protein (XIAP) (P98170 238-359): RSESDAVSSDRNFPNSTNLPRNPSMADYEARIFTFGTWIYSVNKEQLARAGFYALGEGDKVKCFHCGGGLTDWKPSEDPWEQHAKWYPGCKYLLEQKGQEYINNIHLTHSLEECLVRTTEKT

| Ki [1] [µM] | Kd [2] [µM] | Molecule |
| --- | --- | --- |
| 22.3 |  | CCCCCCCCCCCC1=C(O)C(=O)C=C(O)C1=O [embelin] |
|  | 0.145 | recombinant XIAP-BIR3 domain protein (domain or fragment) |
